The values below come from patent US20160184279A1, “METHODS OF TREATING PAIN AND/OR ITCH WITH SMALL MOLECULE INHIBITORS TARGETING AN mTOR PATHWAY” (Transderm, Inc., priority 2014, published 2016).

A short description of this series: Solubility of rapamycin in solvents. Format: physicochemical. The text has this:
Formulations for topical or transdermal delivery systems which effectively administer mTOR inhibitors to treat pain can be challenging to make. One such challenge can be caused by the structures of the various mTOR inhibitors and the associated solubility and/or stability challenges that exist for many of these compounds. […] Benzyl alcohol has been identified as a solvent that can effectively solubilize rapamycin. In particular, benzyl alcohol can support 20 wt % solutions and higher of rapamycin. […] For example, formulations utilizing Span 80 and/or Tween 20 as surfactants were only able to achieve benzyl alcohol loading of 20 wt % or less.

In the case of `CO[C@H]1C[C@@H]2CC[C@@H](C)[C@@](O)(O2)C(=O)C(=O)N2CCCC[C@H]2C(=O)O[C@H]([C@H](C)C[C@@H]2CC[C@@H](O)[C@H](OC)C2)CC(=O)[C@H](C)/C=C(\C)[C@@H](O)[C@@H](OC)C(=O)[C@H](C)C[C@H](C)/C=C/C=C/C=C/1C` [rapamycin], the “solubility in aqueous compositions, ethanolic compositions, triglycerides, alkanes, and silicone systems” value is given as “poorly solubilized”. For the setting “benzyl alcohol solution”, the “solubility in benzyl alcohol” value is given as at least 20 wt %.
